Experimental data: US10517889B2, “Modulators of SMAD7 expression” (Ionis Pharmaceuticals, Inc., priority 2017, dated 2019)
Strand notation (5' to 3'): a small letter for the sugar, then the base; units joined by * are phosphorothioate-linked, units joined directly phosphodiester-linked; [ ] holds rarer units or linkages, { } end groups; capitals alone tell only the bases. k = constrained ethyl (cEt); [5mC] = 5-methylcytosine; d = 2'-deoxy (DNA)

test system: human SMAD7 mRNA; assay: Antisense inhibition of human SMAD7 mRNA expression in Hep3B cells by 3-10-3 cEt gapmers, 10,000 nM, electroporation (Example 2); assay type: cell-based; settings: Hep3B cells, electroporation with 10,000 nM antisense oligonucleotide, approximately 24 hours, SMAD7 mRNA by RT-PCR (RTS5062), relative to untreated control cells
Method in brief: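 SMAD7 mRNA was measured by real-time PCR (RTS5062) with RiboGreen total-RNA normalization, about 24 h after 10,000 nM gapmer was delivered by electroporation into Hep3B cells at 20,000 per well. Gapmers were 16-mer 3-10-3 cEt, fully phosphorothioate; values are % inhibition versus untreated controls.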

“798751 (k[5mC]*k[5mC]*kG*dG*dG*d[5mC]*dA*dG*d[5mC]*dA*dG*dG*dA*kG*kG*k[5mC]; antisense) [compound 798751]” and “798752 (k[5mC]*kG*kG*d[5mC]*d[5mC]*dG*dG*dG*d[5mC]*dA*dG*d[5mC]*dA*kG*kG*kA; antisense) [compound 798752]” are the same in “% Inhibition” value: 0% for the first, 0% for the second.

Going from “798753 (kT*kG*k[5mC]*dA*dG*dT*d[5mC]*d[5mC]*dA*dG*dG*d[5mC]*dG*kG*k[5mC]*k[5mC]; antisense) [compound 798753]” to “798754 (kA*kG*k[5mC]*d[5mC]*dT*dG*d[5mC]*dA*dG*dT*d[5mC]*d[5mC]*dA*kG*kG*k[5mC]; antisense) [compound 798754]”, the “% Inhibition” value rises from 0% to 16%.

First: 798755 (kG*k[5mC]*k[5mC]*d[5mC]*dA*dG*d[5mC]*d[5mC]*dT*dG*d[5mC]*dA*dG*kT*k[5mC]*k[5mC]; antisense) [compound 798755]
Second: 798756 (k[5mC]*kG*k[5mC]*d[5mC]*d[5mC]*d[5mC]*d[5mC]*dG*dG*dG*d[5mC]*d[5mC]*d[5mC]*kA*kG*k[5mC]; antisense) [compound 798756]
The “% Inhibition” value of the first is higher: 46% for the first, 16% for the second.

Going from “798757 (kG*k[5mC]*kG*d[5mC]*dA*dG*dG*d[5mC]*dT*dG*d[5mC]*dG*d[5mC]*kG*k[5mC]*k[5mC]; antisense) [compound 798757]” to “798766 (k[5mC]*kT*kG*dA*dA*d[5mC]*dA*d[5mC]*dT*dT*dT*dG*d[5mC]*kA*k[5mC]*kA; antisense) [compound 798766]”, the “% Inhibition” value rises from 0% to 34%.

First: 798767 (kT*k[5mC]*k[5mC]*dG*dG*d[5mC]*d[5mC]*dA*d[5mC]*d[5mC]*dT*dG*dA*kA*k[5mC]*kA; antisense) [compound 798767]
Second: 798768 (kG*kA*kG*dA*dT*d[5mC]*d[5mC]*dG*dG*d[5mC]*d[5mC]*dA*d[5mC]*k[5mC]*kT*kG; antisense) [compound 798768]
The “% Inhibition” value of the first is lower: 0% for the first, 42% for the second.

First: 798769 (k[5mC]*k[5mC]*kT*dG*dA*dG*dA*dT*d[5mC]*d[5mC]*dG*dG*d[5mC]*k[5mC]*kA*k[5mC]; antisense) [compound 798769]
Second: 798770 (kA*kG*kG*dA*dA*dT*dG*d[5mC]*d[5mC]*dT*dG*dA*dG*kA*kT*k[5mC]; antisense) [compound 798770]
The “% Inhibition” value of the first is higher: 58% for the first, 47% for the second.

Compared with “798771 (k[5mC]*k[5mC]*kG*dA*dG*dG*dA*dA*dT*dG*d[5mC]*d[5mC]*dT*kG*kA*kG; antisense) [compound 798771]”, “798772 (k[5mC]*kT*kT*d[5mC]*d[5mC]*dG*dA*dG*dG*dA*dA*dT*dG*k[5mC]*k[5mC]*kT; antisense) [compound 798772]” is lower in “% Inhibition” value: 62% for the first, 48% for the second.

Going from “798782 (kT*kG*k[5mC]*dA*dG*d[5mC]*dA*d[5mC]*dA*d[5mC]*d[5mC]*dA*dG*k[5mC]*kT*k[5mC]; antisense) [compound 798782]” to “798783 (k[5mC]*kG*kG*d[5mC]*dT*dA*dA*dG*dG*dT*dG*dA*dT*kG*kG*kG; antisense) [compound 798783]”, the “% Inhibition” value falls from 51% to 45%.

For “798784 (kG*kA*kG*dT*d[5mC]*dG*dG*d[5mC]*dT*dA*dA*dG*dG*kT*kG*kA; antisense) [compound 798784]”, the “% Inhibition” value was 35%.

same assay, conditions: Hep3B cells, electroporation with 10,000 nM antisense oligonucleotide, approximately 24 hours, primer probe set RTS5062, relative to untreated control cells

Going from “798745 (antisense kG*k[5mC]*kA*dG*d[5mC]*dT*d[5mC]*d[5mC]*dA*dG*d[5mC]*dT*dG*k[5mC]*k[5mC]*kG) [compound 798745]” to “798746 (antisense kT*kG*kG*dA*dG*d[5mC]*dA*dG*d[5mC]*dA*dG*d[5mC]*dT*k[5mC]*k[5mC]*kA) [compound 798746]”, the “% inhibition of SMAD7 mRNA expression” value rises from 0% to 30%.

Going from “798747 (antisense k[5mC]*kG*kG*d[5mC]*d[5mC]*dT*dG*dG*dA*dG*d[5mC]*dA*dG*k[5mC]*kA*kG) [compound 798747]” to “798748 (antisense k[5mC]*kT*k[5mC]*d[5mC]*dA*d[5mC]*dG*dG*d[5mC]*d[5mC]*dT*dG*dG*kA*kG*k[5mC]) [compound 798748]”, the “% inhibition of SMAD7 mRNA expression” value rises from 14% to 58%.

Going from “798749 (antisense kG*kG*kA*d[5mC]*dT*d[5mC]*d[5mC]*dA*d[5mC]*dG*dG*d[5mC]*d[5mC]*kT*kG*kG) [compound 798749]” to “798750 (antisense kA*kG*kG*dA*dG*dG*d[5mC]*dA*d[5mC]*dG*d[5mC]*dG*dG*kT*kG*k[5mC]) [compound 798750]”, the “% inhibition of SMAD7 mRNA expression” value falls from 63% to 54%.

Compared with “798758 (kG*k[5mC]*kT*dG*d[5mC]*dG*d[5mC]*dA*dG*dG*d[5mC]*dT*dG*k[5mC]*kG*k[5mC]; antisense) [compound 798758]”, “798759 (kG*kG*k[5mC]*dG*dG*d[5mC]*dT*dG*d[5mC]*dG*d[5mC]*dA*dG*kG*k[5mC]*kT; antisense) [compound 798759]” is higher in “% inhibition of SMAD7 mRNA expression” value: 0% for the first, 40% for the second.

First: 798760 (kG*kA*kG*dG*dG*d[5mC]*dG*dG*d[5mC]*dT*dG*d[5mC]*dG*k[5mC]*kA*kG; antisense) [compound 798760]
Second: 798761 (kG*kA*k[5mC]*dG*dA*dG*dG*dG*d[5mC]*dG*dG*d[5mC]*dT*kG*k[5mC]*kG; antisense) [compound 798761]
The “% inhibition of SMAD7 mRNA expression” value of the first is higher: 47% for the first, 39% for the second.

Going from “798762 (kT*kA*kG*dG*dA*d[5mC]*dG*dA*dG*dG*dG*d[5mC]*dG*kG*k[5mC]*kT; antisense) [compound 798762]” to “798763 (kG*kA*kG*dT*dA*dG*dG*dA*d[5mC]*dG*dA*dG*dG*kG*k[5mC]*kG; antisense) [compound 798763]”, the “% inhibition of SMAD7 mRNA expression” value falls from 56% to 53%.

First: 798765 (kA*kA*k[5mC]*dA*d[5mC]*dT*dT*dT*dG*d[5mC]*dA*d[5mC]*dA*kG*k[5mC]*kA; antisense) [compound 798765]
Second: 798773 (kT*kG*kA*d[5mC]*dT*dT*d[5mC]*d[5mC]*dG*dA*dG*dG*dA*kA*kT*kG; antisense) [compound 798773]
The “% inhibition of SMAD7 mRNA expression” value of the first is higher: 63% for the first, 40% for the second.

First: 798774 (kT*kT*kG*dA*d[5mC]*dT*dT*d[5mC]*d[5mC]*dG*dA*dG*dG*kA*kA*kT; antisense) [compound 798774]
Second: 798775 (k[5mC]*k[5mC]*kT*d[5mC]*dT*dT*dG*dA*d[5mC]*dT*dT*d[5mC]*d[5mC]*kG*kA*kG; antisense) [compound 798775]
The “% inhibition of SMAD7 mRNA expression” value of the first is higher: 12% for the first, 0% for the second.

First: 798776 (kA*k[5mC]*kA*d[5mC]*dA*dG*d[5mC]*d[5mC]*dT*d[5mC]*dT*dT*dG*kA*k[5mC]*kT; antisense) [compound 798776]
Second: 798777 (kG*k[5mC]*kA*dA*d[5mC]*dA*d[5mC]*dA*dG*d[5mC]*d[5mC]*dT*d[5mC]*kT*kT*kG; antisense) [compound 798777]
The “% inhibition of SMAD7 mRNA expression” value of the first is higher: 34% for the first, 20% for the second.

First: 798778 (k[5mC]*kA*k[5mC]*dA*dG*d[5mC]*dA*dA*d[5mC]*dA*d[5mC]*dA*dG*k[5mC]*k[5mC]*kT; antisense) [compound 798778]
Second: 798779 (kA*kT*kT*d[5mC]*dA*d[5mC]*dA*dG*d[5mC]*dA*dA*d[5mC]*dA*k[5mC]*kA*kG; antisense) [compound 798779]
The “% inhibition of SMAD7 mRNA expression” value of the first is higher: 64% for the first, 31% for the second.

Going from “798780 (kA*kA*kG*dA*dT*dT*d[5mC]*dA*d[5mC]*dA*dG*d[5mC]*dA*kA*k[5mC]*kA; antisense) [compound 798780]” to “798785 (k[5mC]*kT*kA*dG*dT*dT*d[5mC]*dG*d[5mC]*dA*dG*dA*dG*kT*k[5mC]*kG; antisense) [compound 798785]”, the “% inhibition of SMAD7 mRNA expression” value falls from 58% to 0%.

Compared with “798786 (kA*k[5mC]*kT*d[5mC]*dT*dA*dG*dT*dT*d[5mC]*dG*d[5mC]*dA*kG*kA*kG; antisense) [compound 798786]”, “798787 (kG*kA*kG*dA*d[5mC]*dT*d[5mC]*dT*dA*dG*dT*dT*d[5mC]*kG*k[5mC]*kA; antisense) [compound 798787]” is higher in “% inhibition of SMAD7 mRNA expression” value: 11% for the first, 20% for the second.

Compared with “798788 (kT*k[5mC]*kT*dG*dG*dA*dG*dT*dA*dA*dG*dG*dA*kG*kG*kG; antisense) [compound 798788]”, “798789 (kG*kT*kA*dT*d[5mC]*dT*dG*dG*dA*dG*dT*dA*dA*kG*kG*kA; antisense) [compound 798789]” is higher in “% inhibition of SMAD7 mRNA expression” value: 31% for the first, 44% for the second.

Compared with “798790 (k[5mC]*kG*kG*dG*dT*dA*dT*d[5mC]*dT*dG*dG*dA*dG*kT*kA*kA; antisense) [compound 798790]”, “798791 (k[5mC]*kA*kT*d[5mC]*dG*dG*dG*dT*dA*dT*d[5mC]*dT*dG*kG*kA*kG; antisense) [compound 798791]” is lower in “% inhibition of SMAD7 mRNA expression” value: 49% for the first, 25% for the second.

First: 798807 (kA*kT*k[5mC]*dT*dG*dA*dA*dA*dG*d[5mC]*d[5mC]*d[5mC]*d[5mC]*k[5mC]*k[5mC]*kA; antisense) [compound 798807]
Second: 798808 (kG*kG*kA*dA*dT*d[5mC]*dT*dG*dA*dA*dA*dG*d[5mC]*k[5mC]*k[5mC]*k[5mC]; antisense) [compound 798808]
The “% inhibition of SMAD7 mRNA expression” value of the first is higher: 64% for the first, 44% for the second.

Going from “798809 (kT*kT*kG*dG*dG*dA*dA*dT*d[5mC]*dT*dG*dA*dA*kA*kG*k[5mC]; antisense) [compound 798809]” to “798810 (kA*kA*kG*dT*dT*dG*dG*dG*dA*dA*dT*d[5mC]*dT*kG*kA*kA; antisense) [compound 798810]”, the “% inhibition of SMAD7 mRNA expression” value falls from 2% to 0%.

same assay, conditions: Hep3B cells, electroporation, 10,000 nM antisense oligonucleotide, approximately 24 hours, RTS5062, relative to untreated control cells

In the case of “798806 (kT*kG*kA*dA*dA*dG*d[5mC]*d[5mC]*d[5mC]*d[5mC]*d[5mC]*d[5mC]*dA*kG*kG*kG; antisense) [compound 798806]”, the “% inhibition of SMAD7 mRNA expression” value is reported as 50%.
